In brackets after ≈: the same amount, converted by molar mass. Counter-ions that a name gives are not always drawn.
Tests used:
[1] = system: Citrobacter freundii 1982; assay: Antibacterial activity in vitro (MIC) against Citrobacter freundii 1982; format: cell-based; details: read-out: MIC C. freundii 1982
Method: (§1) The minimum inhibitory concentration in vitro (MIC in μg/ml) of a compound of formula I against Citrobacter freundii 1982 and Staphylococcus aureus 887 is measured and compiled in Table 2.

[2] = system: Staphylococcus aureus 887; assay: Antibacterial activity in vitro (MIC) against Staphylococcus aureus 887; format: cell-based; details: read-out: MIC S. aureus 887
Method: as §1

Row | Compound | MIC [1] [µg/mL] | MIC [2] [µg/mL]
1 | CC(=O)N1C[C@H]2CC(/C=C/c3ccncc3)=C(C(=O)O)N3C(=O)[C@@H]1[C@@H]23 [Example 59, (E)-(1aS,3aR,6bR)-2-Acetyl-1-oxo-5-(2-pyridin-4-yl-vinyl)-1a,2,3,3a,4,6b-hexahydro-1H-2,6a-diaza-cyclobut[cd]indene-6-carboxylic acid sodium salt (1:1)] | 32 | 1
2 | CC(=O)N1C[C@H]2CC(/C=C3\CCN(Cc4cccs4)C3=O)=C(C(=O)O)N3C(=O)[C@@H]1[C@@H]23 [Example 27, (E)-(1aS,3aR,6bR)-2-Acetyl-1-oxo-5-[2-oxo-1-(thiophen-2-ylmethyl)-pyrrolidin-3-ylidenemethyl]-1a,2,3,3a,4,6b-hexahydro-1H-2,6a-diaza-cyclobut[cd]indene-6-carboxylic acid sodium salt (1:1)] | 4 | 2
3 | O=C(O)C1=C(/C=C/c2ccccn2)C[C@@H]2CN[C@@H]3C(=O)N1[C@H]23 [Example 50, (E)-(1aS,3aR,6bR)-1-Oxo-5-(2-pyridin-2-yl-vinyl)-1a,2,3,3a,4,6b-hexahydro-1H-2,6a-diaza-cyclobut[cd]indene-6-carboxylic acid trifluoroacetate (1:1.58)] | 64 | 64
4 | CC(=O)N1C[C@H]2CC(/C=C3\CCN(C4CC4)C3=O)=C(C(=O)O)N3C(=O)[C@@H]1[C@@H]23 [Example 29, (E)-(1aS,3aR,6bR)-2-Acetyl-1-oxo-5-[1-cyclopropyl-2-oxo-pyrrolidin-3-ylidenemethyl]-1a,2,3,3a,4,6b-hexahydro-1H-2,6a-diaza-cyclobut[cd]indene-6-carboxylic acid sodium salt (1:1)] | 1 | 16
5 | CC(=O)N1C[C@H]2CC(/C=C/c3ccccc3)=C(C(=O)O)N3C(=O)[C@@H]1[C@@H]23 [Example 57, (E)-(1aS,3aR,6bR)-2-Acetyl-1-oxo-5-styryl-1a,2,3,3a,4,6b-hexahydro-1H-2,6a-diaza-cyclobut[cd]indene-6-carboxylic acid sodium salt (1:1)] | 64 | 4
6 | CC(=O)N1C[C@H]2CC(/C=C/c3ccc[n+](Cc4ccc(OC(F)(F)F)cc4)c3)=C(C(=O)[O-])N3C(=O)[C@@H]1[C@@H]23 [Example 71] | 64 (≈ 125 µM) | 0.5 (≈ 0.974 µM)
7 | O=C(O)C1=C(/C=C/c2ccccc2)C[C@@H]2CN[C@@H]3C(=O)N1[C@H]23 [Example 49, (E)-(1aS,3aR,6bR)-1-Oxo-5-styryl-1a,2,3,3a,4,6b-hexahydro-1H-2,6a-diaza-cyclobut[cd]indene-6-carboxylic acid trifluoroacetate] | 64 | 8
8 | CC(=O)N1C[C@H]2CC(/C=C3\CCN(c4cccnc4)C3=O)=C(C(=O)O)N3C(=O)[C@@H]1[C@@H]23 [Example 33, (E)-(1aS,3aR,6bR)-2-Acetyl-1-oxo-5-[2-oxo-1-pyridin-3-yl-pyrrolidin-3-ylidenemethyl]-1a,2,3,3a,4,6b-hexahydro-1H-2,6a-diaza-cyclobut[cd]indene-6-carboxylic acid sodium salt (1:1)] | 1 | 2
9 | CC(=O)N1C[C@H]2CC(/C=C3\CCN(c4cccc([N+](=O)[O-])c4)C3=O)=C(C(=O)O)N3C(=O)[C@@H]1[C@@H]23 [Example 30, (E)-(1aS,3aR,6bR)-2-Acetyl-1-oxo-5-[1-(3-nitrophenyl)-2-oxo-pyrrolidin-3-ylidenemethyl]-1a,2,3,3a,4,6b-hexahydro-1H-2,6a-diaza-cyclobut[cd]indene-6-carboxylic acid sodium salt (1:1)] | 4 | 1
10 | CC(=O)N1C[C@H]2CC(/C=C/c3ccc[n+](CC(N)=O)c3)=C(C(=O)[O-])N3C(=O)[C@@H]1[C@@H]23 [Example 67, (E)-(1aS,3aR,6bR)-2-Acetyl-5-[2-(1-carbamoylmethyl-pyridin-1-ium-3-yl)-vinyl]-1-oxo-1a,2,3,3a,4,6b-hexahydro-1H-2,6a-diaza-cyclobut[cd]indene-6-carboxylate] | 16 (≈ 40.4 µM) | 0.25 (≈ 0.631 µM)
11 | O=C(O)C1=C(/C=C2\CCN(Cc3cccs3)C2=O)C[C@@H]2CN[C@@H]3C(=O)N1[C@H]23 [Example 16, (E)-(1aS,3aR,6bR)-1-Oxo-5-[2-oxo-1-(thiophen-2-ylmethyl)-pyrrolidin-3-ylidenemethyl]-1a,2,3,3a,4,6b-hexahydro-1H-2,6a-diaza-cyclobut[cd]indene-6-carboxylic acid trifluoroacetate (1:0.75)] | 16 | 8
12 | CC(=O)N1C[C@H]2CC(/C=C3\CCN(c4ccc(O)cc4)C3=O)=C(C(=O)O)N3C(=O)[C@@H]1[C@@H]23 [Example 24, (E)-(1aS,3aR,6bR)-2-Acetyl-1-oxo-5-[2-oxo-1-(4-hydroxyphenyl)-pyrrolidin-3-ylidenemethyl]-1a,2,3,3a,4,6b-hexahydro-1H-2,6a-diaza-cyclobut[cd]indene-6-carboxylic acid sodium salt (1:1)] | 1 | 1
13 | CC(=O)N1C[C@H]2CC(/C=C3\CCN(c4ccc[n+](CC(N)=O)c4)C3=O)=C(C(=O)[O-])N3C(=O)[C@@H]1[C@@H]23 [Example 40, (E)-(1aS,3aR,6bR)-2-Acetyl-5-[1-(1-carbamoylmethyl-pyridin-1-ium-3-yl)-2-oxo-pyrrolidin-3-ylidenemethyl]-1-oxo-1a,2,3,3a,4,6b-hexahydro-1H-2,6a-diaza-cyclobut[cd]indene-6-carboxylate] | 4 (≈ 8.59 µM) | 2 (≈ 4.3 µM)
14 | CC(=O)N1C[C@H]2CC(/C=C/c3ccccn3)=C(C(=O)O)N3C(=O)[C@@H]1[C@@H]23 [Example 58, (E)-(1aS,3aR,6bR)-2-Acetyl-1-oxo-5-(2-pyridin-2-yl-vinyl)-1a,2,3,3a,4,6b-hexahydro-1H-2,6a-diaza-cyclobut[cd]indene-6-carboxylic acid sodium salt (1:1)] | 4 | 2
15 | CCOC(=O)N1CCC(N2CC/C(=C\C3=C(C(=O)O)N4C(=O)[C@@H]5[C@H]4[C@H](C3)CN5C(C)=O)C2=O)CC1 [Example 32, (E)-(1aS,3aR,6bR)-2-Acetyl-1-oxo-5-[1-(1-ethoxycarbonyl-piperidin-4-yl)-2-oxo-pyrrolidin-3-ylidenemethyl]-1a,2,3,3a,4,6b-hexahydro-1H-2,6a-diaza-cyclobut[cd]indene-6-carboxylic acid sodium salt (1:1)] | 62 | 8
16 | CC(=O)N1C[C@H]2CC(/C=C/c3cccnc3)=C(C(=O)O)N3C(=O)[C@@H]1[C@@H]23 [Example 62, (E)-(1aS,3aR,6bR)-2-Acetyl-1-oxo-5-(2-pyridin-3-yl-vinyl)-1a,2,3,3a,4,6b-hexahydro-1H-2,6a-diaza-cyclobut[cd]indene-6-carboxylic acid sodium salt (1:1)] | 8 | 2
17 | CC(=O)N1C[C@H]2CC(/C=C/c3ccc[n+](Cc4ccccc4)c3)=C(C(=O)[O-])N3C(=O)[C@@H]1[C@@H]23 [Example 66, (E)-(1aS,3aR,6bR)-2-Acetyl-5-[2-(1-benzyl-pyridin-1-ium-3-yl)-vinyl]-1-oxo-1a,2,3,3a,4,6b-hexahydro-1H-2,6a-diaza-cyclobut[cd]indene-6-carboxylate] | 8 (≈ 18.6 µM) | 0.25 (≈ 0.582 µM)
18 | CC(=O)N1C[C@H]2CC(/C=C/c3ccc(O)cc3)=C(C(=O)O)N3C(=O)[C@@H]1[C@@H]23 [Example 60, (E)-(1aS,3aR,6bR)-2-Acetyl-1-oxo-5-[2-(4-hydroxy-phenyl)-vinyl]-1a,2,3,3a,4,6b-hexahydro-1H-2,6a-diaza-cyclobut[cd]indene-6-carboxylic acid sodium salt (1:1)] | 32 | 2
19 | CC(=O)N1C[C@H]2CC(/C=C/c3ccc[n+](CC(=O)Nc4ccc(O)cc4)c3)=C(C(=O)[O-])N3C(=O)[C@@H]1[C@@H]23 [Example 70, (E)-(1aS,3aR,6bR)-2-Acetyl-5-[2-[1-[(4-hydroxyphenylcarbamoyl)-methyl]-pyridin-1-ium-3-yl)-vinyl]-1-oxo-1a,2,3,3a,4,6b-hexahydro-1H-2,6a-diaza-cyclobut[cd]indene-6-carboxylate] | 8 (≈ 16.4 µM) | 0.25 (≈ 0.512 µM)
20 | CC(=O)N1C[C@H]2CC(/C=C/c3cnc4ccccc4c3)=C(C(=O)O)N3C(=O)[C@@H]1[C@@H]23 [Example 63, (E)-(1aS,3aR,6bR)-2-Acetyl-1-oxo-5-(2-quinolin-3-yl-vinyl)-1a,2,3,3a,4,6b-hexahydro-1H-2,6a-diaza-cyclobut[cd]indene-6-carboxylic acid sodium salt (1:1)] | 64 | 0.5
21 | O=C(O)C1=C(/C=C2\CCN(c3cccc([N+](=O)[O-])c3)C2=O)C[C@@H]2CN(C(=O)C(F)(F)F)[C@@H]3C(=O)N1[C@H]23 [Example 34, (E)-(1aS,3aR,6bR)-1-Oxo-5-[2-oxo-1-(3-nitro-phenyl)-pyrrolidin-3-ylidenemethyl]-2-trifluoroacetyl-1a,2,3,3a,4,6b-hexahydro-1H-2,6a-diaza-cyclobut[cd]indene-6-carboxylic acid sodium salt (1:1)] | 8 | 4
22 | O=C(O)C1=C(/C=C2\CCN(c3ccccc3)C2=O)C[C@@H]2CN(C(=O)C(F)(F)F)[C@@H]3C(=O)N1[C@H]23 [Example 37, (E)-(1aS,3aR,6bR)-1-Oxo-5-[2-oxo-1-phenyl-pyrrolidin-3-ylidenemethyl]-2-trifluoroacetyl-1a,2,3,3a,4,6b-hexahydro-1H-2,6a-diaza-cyclobut[cd]indene-6-carboxylic acid sodium salt (1:1)] | 64 | 4
23 | CC(=O)N1C[C@H]2CC(/C=C3\CCN(Cc4ccc([N+](=O)[O-])cc4)C3=O)=C(C(=O)O)N3C(=O)[C@@H]1[C@@H]23 [Example 26, (E)-(1aS,3aR,6bR)-2-Acetyl-1-oxo-5-[2-oxo-1-(4-nitro-benzyl)-pyrrolidin-3-ylidenemethyl]-1a,2,3,3a,4,6b-hexahydro-1H-2,6a-diaza-cyclobut[cd]indene-6-carboxylic acid sodium salt (1:1)] | 8 | 2

— patent US6218379A, “Tricyclic carbacephems” (Hoffmann-la Roche Inc., priority 1996, dated 2001)
